ChEMBL document CHEMBL5143564, “PES derivative PESA is a potent tool to globally profile cellular targets of PES” (Bioorg Med Chem Lett, 2022)
Activity calls are given as the source filed them. The rule behind the calls is not given here.

What was measured:
DOHH-2 [1] = experiment: Induction of autophagy in human DOHH-2 cells assessed as change in transformation of LC3B1 to LC3B2 expression at 0.5 to 8 uM measured after 24 hrs by Western blot analysis; format: functional, cell-based; settings: dose 0.5-8 µM
[2] = molecular target: Elongation factor 2 (Homo sapiens) (UniProt P13639); experiment: Binding affinity to elongation factor 2 in human DOHH-2 cells by MS analysis; format: cell-based
[3] = molecular target: T1, Peroxiredoxin-6 (Homo sapiens) (UniProt P30041); experiment: Binding affinity to PRDX6 in human MDA-MB-453 cells measured after 6 hrs by pull-down assay; format: cell-based; settings: dose <= 20.0 µM, DDE = dose-dependent effect
T1 sequence (whole entry): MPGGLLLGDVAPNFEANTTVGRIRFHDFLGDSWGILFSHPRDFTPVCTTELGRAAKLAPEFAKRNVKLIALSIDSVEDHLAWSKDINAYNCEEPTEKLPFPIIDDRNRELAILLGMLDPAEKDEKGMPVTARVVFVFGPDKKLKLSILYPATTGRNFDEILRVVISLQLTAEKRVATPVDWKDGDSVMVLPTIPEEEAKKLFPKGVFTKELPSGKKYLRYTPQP

[4] = molecular target: T2, Peroxiredoxin-2 (Homo sapiens) (UniProt P32119); experiment: Binding affinity to PRDX2 in human DOHH-2 cells by MS analysis; format: cell-based
T2 sequence (whole entry): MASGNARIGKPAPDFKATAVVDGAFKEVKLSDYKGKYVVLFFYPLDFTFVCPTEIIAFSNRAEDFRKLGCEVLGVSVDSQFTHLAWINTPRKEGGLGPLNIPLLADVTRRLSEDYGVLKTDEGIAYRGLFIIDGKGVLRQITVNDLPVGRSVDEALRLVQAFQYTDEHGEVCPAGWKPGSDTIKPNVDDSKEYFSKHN

[5] = molecular target: Glutathione S-transferase 3, mitochondrial (Homo sapiens) (UniProt O14880); experiment: Binding affinity to MGST3 in human MDA-MB-453 cells measured after 6 hrs by pull-down assay; format: cell-based; settings: dose <= 20.0 µM, DDE = dose-dependent effect
[6] = molecular target: T3, Peroxiredoxin-1 (Homo sapiens) (UniProt Q06830); experiment: Binding affinity to PRDX1 in human DOHH-2 cells measured after 6 hrs by pull-down assay; format: cell-based; settings: DDE = dose-dependent effect
T3 sequence (whole entry): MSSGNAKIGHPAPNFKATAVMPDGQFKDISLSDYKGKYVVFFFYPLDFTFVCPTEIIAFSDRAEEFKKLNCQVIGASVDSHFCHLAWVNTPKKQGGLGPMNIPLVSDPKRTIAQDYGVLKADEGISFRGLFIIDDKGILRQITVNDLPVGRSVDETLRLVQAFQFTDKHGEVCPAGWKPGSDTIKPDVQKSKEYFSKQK

[7] = molecular target: T4, Protein disulfide-isomerase A3 (Homo sapiens) (UniProt P30101); experiment: Binding affinity to PDIA3 in human MDA-MB-453 cells measured after 6 hrs by pull-down assay; format: cell-based; settings: dose <= 20.0 µM, DDE = dose-dependent effect
T4 sequence (whole entry): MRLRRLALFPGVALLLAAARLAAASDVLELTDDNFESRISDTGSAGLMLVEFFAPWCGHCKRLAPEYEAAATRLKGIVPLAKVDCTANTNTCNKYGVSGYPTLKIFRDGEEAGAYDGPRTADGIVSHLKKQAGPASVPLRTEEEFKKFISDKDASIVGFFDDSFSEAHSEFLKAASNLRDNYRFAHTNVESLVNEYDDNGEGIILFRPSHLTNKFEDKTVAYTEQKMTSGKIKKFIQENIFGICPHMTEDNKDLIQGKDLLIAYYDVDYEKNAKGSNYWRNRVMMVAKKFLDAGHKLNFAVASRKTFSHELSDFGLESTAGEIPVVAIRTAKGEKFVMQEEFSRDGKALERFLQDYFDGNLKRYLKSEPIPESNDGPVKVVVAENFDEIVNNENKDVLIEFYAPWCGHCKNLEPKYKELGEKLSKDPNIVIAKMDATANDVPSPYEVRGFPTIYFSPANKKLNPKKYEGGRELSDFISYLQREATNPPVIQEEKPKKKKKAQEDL

[8] = molecular target: T5, Thioredoxin-dependent peroxide reductase, mitochondrial (Homo sapiens) (UniProt P30048); experiment: Binding affinity to PRDX3 in human DOHH-2 cells by MS analysis; format: cell-based
T5 sequence (whole entry): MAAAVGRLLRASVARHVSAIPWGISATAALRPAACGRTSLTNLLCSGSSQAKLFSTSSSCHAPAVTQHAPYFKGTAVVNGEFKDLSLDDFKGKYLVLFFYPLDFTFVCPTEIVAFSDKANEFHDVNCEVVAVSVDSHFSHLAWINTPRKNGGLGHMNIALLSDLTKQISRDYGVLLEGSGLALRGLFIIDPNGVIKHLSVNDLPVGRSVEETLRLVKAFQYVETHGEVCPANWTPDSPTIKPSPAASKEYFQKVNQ

[9] = GSH reactivity in pH 7.4 buffer assessed as GSH adduct formation by measuring half life at 50 uM by near-UV absorbance spectra analysis; format: physicochemical; settings: pH 7.4, 50 µM
DOHH-2 [10] = experiment: Induction of apoptosis in human DOHH-2 cells assessed as increase in cleaved caspase-3 expression at 0.5 to 8 uM measured after 24 hrs by Western blot analysis; format: functional, cell-based; settings: dose 0.5-8 µM
[11] = molecular target: Elongation factor 2 (Homo sapiens) (UniProt P13639); experiment: Binding affinity to elongation factor 2 in human DOHH-2 cells measured after 6 hrs by pull-down assay; format: cell-based; settings: DDE = dose-dependent effect

Chain of Glutathione S-transferase 3, mitochondrial (Homo sapiens) (O14880 whole entry): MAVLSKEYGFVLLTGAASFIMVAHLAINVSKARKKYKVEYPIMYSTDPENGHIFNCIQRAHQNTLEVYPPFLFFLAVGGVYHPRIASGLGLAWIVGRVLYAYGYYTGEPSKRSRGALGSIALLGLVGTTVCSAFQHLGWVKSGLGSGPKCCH

C#Cc1cccc(C#CS(N)(=O)=O)c1
Activity (DOHH-2 [1]): Active | Activity [2]: Active | Activity [3]: Dde | Activity [4]: Active | Activity [5]: Dde | Activity [6]: Dde | Activity [7]: Dde | Activity [8]: Active | t1/2 [9]: 3.91 min | Activity (DOHH-2 [10]): Active | Activity [11]: Dde
